# According to patent publication US20050148630A1, “Methods of preventing and treating non-opioid induced gastrointestinal dysfunction” (priority 2003, published 2005):
# What was measured:
# [1] = Solubility in water; type: physicochemical; conditions: except at low or high pH conditions
# [2] = test system: subjects with functional constipation; experiment: Oral-cecal transit time, lactulose hydrogen breath test, cross-over study; type: in vivo, human; conditions: 3 mg BID, Day 7, lactulose hydrogen breath test
# Source text: (§1) Subjects underwent measurement of their whole bowel transit (radio-opaque markers) and oral-cecal transit (hydrogen-breath test) prior to receiving the first treatment (baseline) and at the end of each treatment period. During the screening and treatment periods, subjects recorded the time of each bowel movement (defecatory frequency), an assessment of each stool's consistency (using the Bristol Stool Form Scale), and an overall rating of their satisfaction with their bowel movements over each period (1-5 scale: 1=much worse than usual, 2=worse than usual, 3=no change, 4=better than usual, 5=much better than usual). Stool output per 7-day period was calculated from the weight of all stools collected during each treatment period (stools collected over the 7-day assessment period).
# The transit time for mouth to cecum, a reflection of small bowel transit, was measured utilizing the hydrogen breath test. […] The time between ingestion of lactulose (10 g) and the sustained increase in hydrogen in the breath (hydrogen concentration in end-expiratory breath samples as measured by gas chromatography) represents the oral-cecal transit time (OCTT). […] Breath samples were measured every 15 minutes following ingestion of the lactulose. Transit time was determined by the first time of three consecutive samples in which there was at least a doubling of the baseline breath hydrogen concentration. […]
# [3] = test system: subjects with functional constipation; experiment: Bowel movement frequency and symptoms by patient self-report diary card, cross-over study; type: in vivo, human
# Source text: as §1
# Each treatment period comprised seven days of dosing (oral alvimopan 3 mg or matching placebo, given at 8:00 AM and 8:00 PM). For each defecation, subjects recorded the time, date, and stool form (Bristol Stool Form Criteria) (Heaton, et al., Gut, 1991, 73-79). Subjects rated their overall satisfaction with their bowel movements for the treatment period on Day 7.
# For Day 1 of each treatment period, the following procedures were conducted in the clinic prior to the morning dosing: a urine drug screen, and a urine/serum pregnancy test (when applicable), semi-supine (i.e., 45-degree angle, pillow, etc.) blood pressure and pulse rate measurements and recording of baseline signs and symptoms. All subjects received their first dose of alvimopan 3 mg or placebo after a light breakfast in the clinic at approximately 8 AM in the morning and according to the randomization schedule. Each dose of alvimopan or placebo was taken with 240 ml of still room-temperature water at each dosing occasion. Subjects were then dispensed the study drug to be taken until the evening dose on Day 5, as well as the Stizmark capsules containing the radio-opaque markers and discharged. Subjects were admitted to the study unit on the evening of Day 5 until completion of the transit studies on Day 7. They were asked to complete a medication diary with the times of morning and evening dosing as an outpatient, as well as any symptoms they experienced at home. Subjects collected all stools from Days 1 to 7. Subjects recorded the time, date, and stool form (Bristol Stool Form Criteria) (Heaton, et al., Gut, 1991, 73-79) for each defecation. Subjects rated their overall satisfaction with their bowel movements for the treatment period on Day 7.
# (§2) This single-center, randomized, placebo-controlled, crossover trial was designed to determine the effect of alvimopan on bowel transit of patients with chronic constipation. Whole bowel transit (WBT), bowel movement frequency as total bowel movement (BM), and spontaneous complete BM (SCBM), BM symptoms of straining, discomfort, and satisfaction were compared between placebo and alvimopan (3 mg BID) for 7 days. Safety and tolerability were assessed.
# (§3) The following were performed for each test arm: WBT estimated by a weighted sum of retained radio-opaque markers (based on number and location in the colon on single x-ray 48 hours post marker ingestion) and mean colonic transit time (MCTT) calculated by the method of Metcalf et al., Gastroenterology, 1987, 92: 40-47; and bowel movement frequency (BMF) and symptoms by patient self-report diary card.
# [4] = test system: subjects with functional constipation; experiment: Safety and tolerability in the cross-over study; type: in vivo, human; conditions: 3 mg BID for 7 days
# Source text: Subjects were given a physical examination, vital signs, and blood and urine samples obtained for safety laboratory studies at the conclusion of their last treatment period. Any abnormal findings were followed until resolution.
# as §2
# [5] = test system: healthy volunteers; experiment: Ascending dose level safety study (Phase I) of alvimopan, TID for 4 days; type: in vivo
# Source text: This was an ascending dose level safety study (Phase I) intended to determine the frequency and severity of adverse events (AEs) and to estimate the maximum tolerated dose of alvimopan. Subjects were screened to ensure their status as healthy volunteers. They were only enrolled if they had no clinically significant abnormalities on history, physical, or laboratory examinations. Post study physical examination and laboratory tests, including serum chemistries and complete blood count, were performed.
# Alvimopan or placebo was administered TID for 4 days.
# One subject in each dose group was randomly assigned to receive placebo that was identical in appearance to the active study medication.
# Forty-four subjects were randomized for treatment. One subject at each dose level received placebo (N=5); the rest received alvimopan. […] The incidence of gastrointestinal AEs increased with increasing dose of alvimopan. One or more incidence of mild or moderate “abdominal pain” was reported by 83-100% of subjects receiving 18 or 54 mg daily doses (6 or 18 mg TID), but was infrequent at lower doses (range 11-18%). One or more incidence of diarrhea was reported by 83% of subjects receiving 54 mg daily doses (18 mg TID), but was infrequent at lower doses (range 9-22%). One or more incidence of flatulence was reported by 50-78% of subjects receiving 18 or 54 mg daily doses (6 or 18 mg TID), but was less frequent at lower doses (range 18-33%). One subject receiving the highest dose, 54 mg/day (18 mg TID), withdrew during the second day of dosing due to adverse events of abdominal pain, nausea, and diarrhea.
# [6] = test system: subjects with functional constipation; experiment: Whole bowel transit (radio-opaque markers) and mean colonic transit time, placebo-controlled cross-over study; type: in vivo, human; conditions: 3 mg BID for 7 days
# Method: A single-center, placebo-controlled, randomized, double-blind, balanced two period cross-over study of the effect of alvimopan on GI transit in subjects with functional constipation was carried out.
# Subjects (n=24) meeting the initial screening criteria for functional constipation by history, and who had 3 or fewer stools during a 7-day screening period, were randomly assigned to receive initially either orally-administered alvimopan, 3 mg twice daily for 7 days or matching placebo. Following a two- to four-week washout period, subjects received the opposite treatment for a 7-day period.
# as §1
# Whole bowel transit was determined by using a modification of the radio-opaque marker method developed by Metcalf et al., Gastroenterology, 1987, 92: 40-47. This method is reproducible and correlates well with scintigraphic methods of measuring colonic transit (Degen, et al., Gut, 1996, 39: 299-305). Subjects ingested, at 8:00 AM on the mornings of Days 3, 4, 5, one capsule containing 24 radio-opaque markers (Sitzmark; Konsyl Pharmaceuticals, Fort Worth, Tex.). Stools from Days 3 to 7 were collected and examined by x-ray for the presence of the radio-opaque markers. […] Weights were assigned to the six locations in the colon and a weighted average of the number of radio-opaque markers in the colon was calculated. […]
# This single-center, randomized, placebo-controlled, crossover trial was designed to determine the effect of alvimopan on bowel transit of patients with chronic constipation. […] Safety and tolerability were assessed.
# as §3
# [7] = 18 or 54 mg daily doses (6 or 18 mg TID)
structure (smiles),measurement,setting,value
"C[C@H]1CN(C[C@H](Cc2ccccc2)C(=O)NCC(=O)O)CC[C@@]1(C)c1cccc(O)c1 [alvimopan, [[(2S)-2-[[(3R,4R)-4-(3-hydroxyphenyl)-3,4-dimethylpiperidin-1-yl]methyl]-3-phenylpropanoyl]amino]acetic acid dihydrate]",solubility in water,[1],low solubility
same,OCTT v. placebo,[2],not changed
same,BM consistency compared to placebo,[3]; 3 mg BID for 7 days,improved
same,BM discomfort compared to placebo,[3]; 3 mg BID for 7 days,improved
same,BM satisfaction compared to placebo,[3]; 3 mg BID for 7 days,improved
same,BM straining compared to placebo,[3]; 3 mg BID for 7 days,improved
same,mean increase above baseline for SCBM,"[3]; 3 mg BID over 7 days, placebo 0.3",0.6
same,mean increase above baseline for BMF,"[3]; 3 mg BID over 7 days, placebo 0.5",1.0
same,mean bowel movement Bristol Stool Form Scale score,"[3]; FIG. 2, 3 mg BID for 7 days",increased
same,% of bowel movements with no/mild straining or discomfort,"[3]; FIG. 3, 3 mg BID for 7 days",increased
same,incidence of GI-related adverse effects versus placebo arm,[4],slightly higher
same,severity of adverse events,[4]; both arms,generally mild
same,premature discontinuation due to an adverse effect,[4]; either treatment arm,No subjects prematurely discontinued
same,subjects reporting one or more incidence of diarrhea,[5]; 54 mg daily doses (18 mg TID),83%
same,"subjects withdrawn due to adverse events of abdominal pain, nausea, and diarrhea","[5]; 54 mg/day (18 mg TID), second day of dosing",One
same,subjects reporting one or more incidence of flatulence,[5]; [7],50-78%
same,subjects reporting one or more incidence of mild or moderate abdominal pain,[5]; [7],83-100%
same,tolerability,[5]; doses up to 54 mg daily (18 mg TID) for 4 days,generally well tolerated
same,subjects reporting one or more incidence of diarrhea,[5]; lower doses,9-22%
same,subjects reporting one or more incidence of flatulence,[5]; lower doses,18-33%
same,subjects reporting one or more incidence of mild or moderate abdominal pain,[5]; lower doses,11-18%
same,reduction in MCTT versus placebo,[6],19%
same,reduction in weighted sum of retained radio-opaque markers (faster whole bowel transit) versus placebo,[6]; p<0.049,32%
same,mean colonic transit time (MCTT),[6]; placebo 69±5,56 ± 6 h
same,"WBT, weighted sum of retained radio-opaque markers",[6]; placebo 160±17,109±17 WSM
